In patent US20240174690A1, “ANNULATED 2-AMINO-3-CYANO THIOPHENES AND DERIVATIVES FOR THE TREATMENT OF CANCER” (BOEHRINGER INGELHEIM INTERNATIONAL GMBH, priority 2021, published 2024):

Experiments:
[1] = target: CYP3A4 (Homo sapiens (Human), UniProt P08684); test: Mechanism based inhibition of CYP3A4 assay (MBI 3A4); type: in vitro ADME; details: hydroxy-midazolam formation after 30 min vs 0 min preincubation, 25 uM, human liver microsomes
Procedure, shortened: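 Readout is hydroxy-midazolam formed after 30 min preincubation relative to 0 min, measured by LC/MS-MS after acetonitrile quench. Following preincubation, samples diluted 1:10 and incubated 15 min with midazolam substrate.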

[2] = target: KRAS (WT)::SOS1 (Homo sapiens (Human), UniProt P01116, C118S); test: KRAS::SOS1 AlphaScreen binding assay, KRAS WT
Sequence of KRAS (WT)::SOS1 (P01116 other isoform, or with tags, fused parts or gaps C118S): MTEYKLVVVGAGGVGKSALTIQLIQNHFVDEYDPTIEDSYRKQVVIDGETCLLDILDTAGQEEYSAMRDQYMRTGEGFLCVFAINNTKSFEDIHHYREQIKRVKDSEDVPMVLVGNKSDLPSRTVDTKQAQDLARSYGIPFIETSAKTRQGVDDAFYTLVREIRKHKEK
Procedure, shortened: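 Compounds (up to 100 μM, eleven fivefold dilutions in duplicate) were incubated 30 min with KRAS 1-169 (10 nM, or 7.5 nM for G12C), GST-SOS1 564-1049 (5 nM for G12D/G12C, 10 nM for others) and 10 μM GDP in PBS buffer with BSA and Tween. Donor/acceptor beads were then added for 60 min at room temperature, and IC50 came from a 4-parameter fit of the AlphaScreen signal.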

[3] = tested on: GP2D cells; test: GP2D proliferation assay (120 h) (colorectal cancer, G12D); type: cell-based
Procedure, shortened: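 500 cells/well in DMEM + GlutaMAX + 10% FCS, exposed to a logarithmic compound dose series (DMSO-normalized) for 120 h. Viability read by CellTiter-Glo luminescence as percent of DMSO control, with an untreated T0 read at dosing; IC50 from four-parameter non-linear regression.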

Sequence of CYP3A4 (P08684 whole entry): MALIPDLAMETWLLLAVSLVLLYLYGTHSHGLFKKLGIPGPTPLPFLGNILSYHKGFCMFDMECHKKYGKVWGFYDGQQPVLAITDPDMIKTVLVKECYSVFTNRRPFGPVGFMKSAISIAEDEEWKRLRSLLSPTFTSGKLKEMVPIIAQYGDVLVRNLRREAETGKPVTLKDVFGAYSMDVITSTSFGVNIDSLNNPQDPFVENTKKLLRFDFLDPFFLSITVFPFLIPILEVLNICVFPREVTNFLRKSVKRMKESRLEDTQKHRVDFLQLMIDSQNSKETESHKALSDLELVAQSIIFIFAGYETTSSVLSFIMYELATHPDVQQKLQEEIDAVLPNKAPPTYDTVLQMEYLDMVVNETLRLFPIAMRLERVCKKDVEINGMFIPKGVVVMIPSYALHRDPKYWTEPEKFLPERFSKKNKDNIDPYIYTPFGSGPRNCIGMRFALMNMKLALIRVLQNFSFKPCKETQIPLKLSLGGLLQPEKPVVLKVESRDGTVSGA

SMILES	MBI 3A4 [1] [%]	IC50 [2] [nM]	IC50 [3] [nM]
C[C@H](Oc1nc(-c2onc3c2CCC[C@@]32CCCc3sc(N)c(C#N)c32)cc(N2CCN(C)C3(CC3)C2)n1)[C@@H]1CCCN1C [I-40]	37		
C[C@H](Oc1cc(N2CCN(C)C3(CC3)C2)nc(-c2onc3c2CCC[C@@]32CCCc3sc(N)c(C#N)c32)n1)[C@@H]1CCCN1C [I-41]	68	5	8
C[C@H](Oc1cc(-c2ccn(C[C@@H](C)O)n2)nc(-c2onc3c2CCC[C@@]32CCCc3sc(N)c(C#N)c32)n1)[C@@H]1CCCN1C [I-30]	77	3	811
C[C@H](Oc1cc(-c2ccn3ncnc3c2)nc(-c2onc3c2CCC[C@@]32CCCc3sc(N)c(C#N)c32)n1)[C@@H]1CCCN1C [I-33]	73		
CO[C@H]1CCN(C)[C@@H]1[C@H](C)Oc1cc(N2CCNC3(CC3)C2)nc(-c2onc3c2CCC[C@@]32CCCc3sc(N)c(C#N)c32)n1 [I-49]			1
C[C@H](Oc1cc(-c2ccn(C3COC3)n2)nc(-c2onc3c2CCC[C@@]32CCCc3sc(N)c(C#N)c32)n1)[C@@H]1CCCN1C [I-34]	67	4	872
C[C@H](Oc1cc(-c2ccn(CC(C)(C)O)n2)nc(-c2onc3c2CCC[C@@]32CCCc3sc(N)c(C#N)c32)n1)[C@@H]1CCCN1C [I-26]	71		
CO[C@@H]1C[C@@H]([C@H](C)Oc2cc(-c3ccn(C)n3)nc(-c3onc4c3CCC[C@@]43CCCc4sc(N)c(C#N)c43)n2)N(C)C1 [I-23]	57		1170
C[C@H](Oc1cc(N2CCNC3(CCC3)C2)nc(-c2onc3c2CCC[C@@]32CCCc3sc(N)c(C#N)c32)n1)[C@@H]1CCCN1C [I-3]	51	7	2
C[C@H](Oc1cc(-c2cnsc2)nc(-c2onc3c2CCC[C@@]32CCCc3sc(N)c(C#N)c32)n1)[C@@H]1CCCN1C [I-27]	50		
C[C@H](Oc1cc(N2CCN(C)C3(COC3)C2)nc(-c2onc3c2CCC[C@@]32CCCc3sc(N)c(C#N)c32)n1)[C@@H]1C[C@@H](F)CN1C [I-37]	45	4	24
C[C@H](Oc1cc(-c2ccn(C)n2)nc(-c2onc3c2CCC[C@@]32CCCc3sc(N)c(C#N)c32)n1)[C@@H]1CCCN1C [I-21]	40		546
CO[C@@H]1C[C@@H]([C@H](C)Oc2cc(N3CCN(C)C4(CC4)C3)nc(-c3onc4c3CCC[C@@]43CCCc4sc(N)c(C#N)c43)n2)N(C)C1 [I-50]			10
C[C@H](Oc1cc(-n2ccnn2)nc(-c2onc3c2CCC[C@@]32CCCc3sc(N)c(C#N)c32)n1)[C@@H]1CCCN1C [I-32]	41		
C[C@H](Oc1cc([C@@H]2CCOC2)nc(-c2onc3c2CCC[C@@]32CCCc3sc(N)c(C#N)c32)n1)[C@@H]1CCCN1C [I-22]		3	27
C[C@H](Oc1nc(-c2onc3c2CCC[C@@]32CCCc3sc(N)c(C#N)c32)cc(N2CCNC3(CC3)C2)n1)[C@@H]1CCCN1C [I-2]	36	42	
C[C@H](O)Cn1ccc(-c2cc(O[C@@H](C)[C@@H]3CCCN3C)nc(-c3onc4c3CCC[C@@]43CCCc4sc(N)c(C#N)c43)n2)n1 [I-31]	67		588
Cc1nc(-c2cc(O[C@@H](C)[C@@H]3CCCN3C)nc(-c3onc4c3CCC[C@@]43CCCc4sc(N)c(C#N)c43)n2)cs1 [I-24]	73		
C[C@H](Oc1cc(-n2ccnc2)nc(-c2onc3c2CCC[C@@]32CCCc3sc(N)c(C#N)c32)n1)[C@@H]1CCCN1C [I-20]	85		

Next, values leading:

MBI 3A4 [1] [%]	IC50 [2] [nM]	IC50 [3] [nM]	SMILES
81			C[C@H](Oc1cc([C@@H]2CCN(C)C2)nc(-c2noc3c2CCC[C@@]32CCCc3sc(N)c(C#N)c32)n1)[C@@H]1CCCN1C [II-37]
71		408	C[C@H](Oc1cc(-c2ccn(C)n2)nc(-c2noc3c2CCC[C@@]32CCCc3sc(N)c(C#N)c32)n1)[C@@H]1C[C@@H](F)CN1C [II-27]
		56	C[C@H]1CN(C)CCCN1c1cc(N2CC[C@H](N(C)C)C2)nc(-c2noc3c2CCC[C@@]32CCCc3sc(N)c(C#N)c32)n1 [II-16]
84	34	65	C[C@H](Oc1cc(N2CCC(N(C)C)CC2)nc(-c2noc3c2CCC[C@@]32CCCc3sc(N)c(C#N)c32)n1)[C@@H]1CCCN1C [II-48]
71			C[C@H](Oc1cc(C2CCCO2)nc(-c2noc3c2CCC[C@@]32CCCc3sc(N)c(C#N)c32)n1)[C@@H]1CCCN1C (stereo partly shown) [II-44]
79		5	C[C@H](Oc1cc(N2CCNC(C)(C)C2)nc(-c2noc3c2CCC[C@@]32CCCc3sc(N)c(C#N)c32)n1)[C@@H]1CCCN1C [II-32]
		5	C[C@H](Oc1cc(N2CCNC3(CCC3)C2)nc(-c2noc3c2CCC[C@@]32CCCc3sc(N)c(C#N)c32)n1)[C@@H]1CCCN1C [II-40]
	6	2	C[C@H](Oc1cc(N2C[C@H](C)NC3(CC3)C2)nc(-c2noc3c2CCC[C@@]32CCCc3sc(N)c(C#N)c32)n1)[C@@H]1C[C@@H](F)CN1C [II-18]
78	15	9	C[C@H](Oc1cc(N2CC[C@H](N3CCCCC3)C2)nc(-c2noc3c2CCC[C@@]32CCCc3sc(N)c(C#N)c32)n1)[C@@H]1CCCN1C [II-12]
83	15	6	C[C@H](Oc1cc(N2CC[C@H](N3CCCC3)C2)nc(-c2noc3c2CCC[C@@]32CCCc3sc(N)c(C#N)c32)n1)[C@@H]1CCCN1C [II-14]
80		11	C[C@H](Oc1cc(N2C[C@@H](N(C)C)[C@@H](O)C2)nc(-c2noc3c2CCC[C@@]32CCCc3sc(N)c(C#N)c32)n1)[C@@H]1CCCN1C [II-10]
		4	C[C@H](Oc1cc([C@H]2CCN(C)C2)nc(-c2noc3c2CCC[C@@]32CCCc3sc(N)c(C#N)c32)n1)[C@@H]1CCCN1C [II-38]
	13	31	CN[C@H]1CCN(c2cc(O[C@@H](C)[C@@H]3CCCN3C)nc(-c3noc4c3CCC[C@@]43CCCc4sc(N)c(C#N)c43)n2)C1 [II-35]
91	53		C[C@H](Oc1nc(-c2noc3c2CCC[C@@]32CCCc3sc(N)c(C#N)c32)cc(N2C[C@H](C)N[C@@H](C)C2)n1)[C@@H]1CCCN1C [II-46]
	4		[2H]C([2H])([2H])N1C[C@H](F)C[C@H]1[C@H](C)Oc1cc(N2CCNC3(CC3)C2)nc(-c2noc3c2CCC[C@@]32CCCc3sc(N)c(C#N)c32)n1 [II-208]
70			C[C@H](Oc1cc(-c2ccn(C[C@@H]3CCCO3)n2)nc(-c2noc3c2CCC[C@@]32CCCc3sc(N)c(C#N)c32)n1)[C@@H]1CCCN1C [II-43]
		105	C[C@H](Oc1cc(N2CC[C@@H](N(C)C)C2)nc(-c2noc3c2CCC[C@@]32CCCc3sc(N)c(C#N)c32)n1)[C@@H]1CCCN1C [II-47]
	4	78	C[C@H](Oc1cc(N2C[C@@H](N(C)C)[C@@H](F)C2)nc(-c2noc3c2CCC[C@@]32CCCc3sc(N)c(C#N)c32)n1)[C@@H]1CCCN1C [II-11]
	5	6	C[C@@H]1CN(c2cc(O[C@@H](C)[C@@H]3C[C@@H](F)CN3C)nc(-c3noc4c3CCC[C@@]43CCCc4sc(N)c(C#N)c43)n2)CC2(CC2)N1 [II-17]
